From patent publication US4520031A, “Method for reducing toxic effects of methyl-glyoxal bis-guanylhydrazone” (priority 1982, dated 1985)
Entries after “also recorded” stand apart in the source; their conditions may differ. Where two headings read alike, the source gives them in different places.

Experiments:
Leukemia = experiment: Response to weekly MGBG, leukemia; format: in vivo, human; conditions: 1 mg/m^2 weekly for three weeks; 1 evaluable patient
Procedure: **Patient received 1 mg/m^2 weekly for three weeks

[1] = tested on: mitochondrial respiration; conditions: in vitro; cited from earlier work
[2] = tested on: acute myelocytic leukemia; conditions: cited from earlier work
Esophagus = experiment: Response to weekly MGBG, esophagus; format: in vivo, human
Lymphoma = experiment: Response to weekly MGBG, lymphoma; format: in vivo, human; conditions: 2 evaluable patients
Pancreas = experiment: Response to weekly MGBG, pancreas; format: in vivo, human; conditions: 5 evaluable patients
[3] = human subjects undergoing MGBG treatment; cited from earlier work
leukemia-L1210 = conditions: Freelander and French; cited from earlier work
[4] = some peculiar to certain animal species; cited from earlier work
protein synthesis = conditions: in vitro; cited from earlier work
[5] = over three weeks, 30240 min; cited from earlier work
Melanoma = experiment: Response to weekly MGBG, melanoma; format: in vivo, human; conditions: 1 evaluable patient
Ewings = experiment: Response to weekly MGBG, Ewings; format: in vivo, human; conditions: 1 evaluable patient
[6] = design: muscle pain and weakness in patient with acute leukemia: dose or concentration left out as unconfirmed
Procedure: During the course of the clinical experiments, MGBG was administered to patients in approximately weekly doses ranging from 250 to 1000 mg per square meter.
Pre-treatment minimum evaluation included chest roentgenogram, liver and renal function tests, complete blood count with differential and platelet count and serum glucose. Pre-treatment performance status was recorded for each patient in accordance with SWOG criteria.
This intravenous infusion is administered to the patient over a period of time not less than 30 minutes. Accordingly, an approximation of the patient's surface area in square meters is calculated using a height and weight to surface area nomogram (listed in Documenta Geigy, Scientific Tables (1970) p. 537) and this factor is applied in determining the appropriate amount of MGBG salt to be added to the infusion solution. […] In the absence of toxicity, subsequent doses of MGBG are increased by 100 mg/m^2 over the previous week's dose. If patients experience moderate or severe reversible toxicity, the dose is reduced by 100 mg/m^2 relative to the previous week's dose. No change in dosage strength is made for mild toxicity.

Breast = experiment: Response to weekly MGBG, breast; format: in vivo, human; conditions: 12 evaluable patients
[7] = tested on: advanced malignant disease; experiment: Response to weekly MGBG, all diagnoses (Table I); format: in vivo, human
Renal = experiment: Response to weekly MGBG, renal; format: in vivo, human
[8] = tested on: Bladder (transitional cell); experiment: Response to weekly MGBG, bladder; format: in vivo, human
Oat Cell = experiment: Response to weekly MGBG, oat cell; format: in vivo, human; conditions: 1 evaluable patient
Hepatoma = experiment: Response to weekly MGBG, hepatoma; format: in vivo, human; conditions: 1 evaluable patient
Head & Neck = experiment: Response to weekly MGBG, head & neck; format: in vivo, human; conditions: 2 evaluable patients
spermidine biosynthesis = conditions: in vitro; concentrations as low as; cited from earlier work
[9] = first twelve patients, 250 mg/m^2 weekly

For `CC(C=NNC(=N)N)=NNC(=N)N` [MGBG, 1,1'-[(methylethanediylidene)dinitrilo] diguanidine], the “IMP (Improvement noted)” value (Leukemia) is given as 1, the “concentration with complete inhibition of mitochondrial respiration” value [1] is given as no less than 30000 ng/mL and the “remission rate (complete remissions)” value ([2]; average daily parenteral dose of 126 to 160 mg/m^2, Levin et al.) is given as 45%. The “activity in acute myelocytic leukemia” value ([2]; daily dosing schedule) was “major activity”, the “median increase in survival” value ([2]; from 2.5 months, compared to patients with myeloblastic leukemia treated with 6-mercaptopurine) was 6.5 months and the “CR + PR” value (Esophagus; 2 evaluable patients) was 1. The “No Response” value (Esophagus; 2 evaluable patients) was 1, the “PR (Partial response)” value (Esophagus; 2 evaluable patients) was 1 and the “Duration Months” value (Esophagus; duration of CR + PR) was 3 Months. The “No Response” value (Lymphoma) was 2, the “CR + PR” value (Pancreas) was 2 and the “No Response” value (Pancreas) was 3. The “PR (Partial response)” value (Pancreas) was 2, the “toxic effects unique to man” value [3] was “esophagitis, ulcerative pharyngitis, laryngitis, stomatitis, genital mucosa swelling, conjunctivitis, mucositis, erythema, edema, desquamating dermatitis, and profound anorexia with associated weight loss; also recorded: mucositis, vasculitis, and profound anorexia with associated weight loss” and the antitumor activity (leukemia-L1210) was “growth inhibiting effects; also recorded: antitumor activity”. For the same compound, the toxicological effects observed [4] was “gastrointestinal toxicity, delayed and fatal hypoglycemia, hepatic and renal damage, bone marrow depression, diarrhea and phlebitis”, the “concentration with direct toxic effects, including inhibition of protein synthesis” value (protein synthesis) was no less than 30000 ng/mL and the “administered intravenous dose excreted in the feces” value [5] was “less than 20%”. For the same compound, the “administered intravenous dose excreted in the urine” value [5] was 50%, the “IMP (Improvement noted)” value (Melanoma) was 1 and the “No Response” value (Ewings) was 1. The “Number with Toxicity” value ([6]; 1 course MGBG, 13 patients) was 1 patients, the “Number with Toxicity (Approx %)” value ([6]; 1 course MGBG, 13 patients) was 8% and the “Number with Toxicity” value ([6]; 2 courses MGBG, 25 patients) was 7 patients. For the same compound, the “Number with Toxicity (Approx %)” value ([6]; 2 courses MGBG, 25 patients) was 28%, the “Number with Toxicity” value ([6]; 3 courses MGBG, 15 patients) was 6 patients and the “Number with Toxicity (Approx %)” value ([6]; 3 courses MGBG, 15 patients) was 40%. The “Anemia, Hemoglobin 5.0-6.9 g/100 ml” value ([6]; 90 patients) was 2 patients, the “Anemia, Hemoglobin 7.0-8.9 g/100 ml” value ([6]; 90 patients) was 1 patients and the “Diarrhea: 3-4 stools/day, no dehydration” value ([6]; 90 patients) was 1 patients. For the same compound, the “Diarrhea: 4 liquid stools/day, IV hydration required” value ([6]; 90 patients) was 1 patients, the “Granulocytes: <1000/mm^3” value ([6]; 90 patients) was 3 patients and the “vomiting ≤6 times/day” value ([6]; 90 patients) was 5 patients. For the same compound, the “vomiting ≥7 times/day” value ([6]; 90 patients) was 3 patients, the “patients with no toxicity (number)” value ([6]; 90 patients, 500 mg/m^2 or more each week) was 67 patients and the “Mucositis: drug-related death” value ([6]; 90 patients, patient with hepatoma, one dose at 600 mg/m^2) was 1 patients. The “muscle pain and weakness in patient with acute leukemia” value ([6]; acute leukemia, three weekly doses) was “One”, the “toxicity at 250 mg/m^2 weekly” value [6, 9] was “no toxicity” and the “Anorexia (Approx. %)” value ([6]; human, in vivo) was 8%. The “Anorexia (No. of Patients)” value ([6]; human, in vivo) was 7 patients, the “Balanitis (Approx. %)” value ([6]; human, in vivo) was 4% and the “Balanitis (No. of Patients)” value ([6]; human, in vivo) was 4 patients. For the same compound, the “Diarrhea (Approx. %)” value ([6]; human, in vivo) was 3%, the “Diarrhea (No. of Patients)” value ([6]; human, in vivo) was 3 patients and the “Granulocytes: <1500 mm^3” value ([6]; human, in vivo) was 2 patients. The “Hematologic (Approx. %)” value ([6]; human, in vivo) was 11%, the “Hematologic (No. of Patients)” value ([6]; human, in vivo) was 10 patients and the “Mucositis: erythema” value ([6]; human, in vivo) was 3 patients. For the same compound, the “Mucositis: ulcers, able to eat” value ([6]; human, in vivo) was 7 patients, the “Mucositis: ulcers, unable to eat” value ([6]; human, in vivo) was 6 patients and the “Myelosuppression (number)” value ([6]; human, in vivo) was 7 patients. The “Myelosuppression (percent)” value ([6]; human, in vivo) was 8%, the “Myopathy (Approx. %)” value ([6]; human, in vivo) was 3% and the “Myopathy (No. of Patients)” value ([6]; human, in vivo) was 3 patients. For the same compound, the “Nausea and vomiting (Approx. %)” value ([6]; human, in vivo) was 16%, the “Nausea and vomiting (No. of Patients)” value ([6]; human, in vivo) was 14 patients and the “Platelets: 25 × 10^3 -50 × 10^3 /mm^3” value ([6]; human, in vivo) was 2 patients. The “Skin rash (Approx. %)” value ([6]; human, in vivo) was 2%, the “Skin rash (No. of Patients)” value ([6]; human, in vivo) was 2 patients and the “Urethritis (Approx. %)” value ([6]; human, in vivo) was 3%. The “Urethritis (No. of Patients)” value ([6]; human, in vivo) was 3 patients, the “Vasculitis (Approx. %)” value ([6]; human, in vivo) was 2% and the “Vasculitis (No. of Patients)” value ([6]; human, in vivo) was 2 patients. For the same compound, the “anemia (number)” value ([6]; human, in vivo) was 3 patients, the “anemia (percent)” value ([6]; human, in vivo) was 3% and the bloody diarrhea ([6]; human, in vivo) was 1 patients. The “hospitalization secondary to vomiting” value ([6]; human, in vivo) was 1 patients, the “nausea, no vomiting” value ([6]; human, in vivo) was 5 patients and the “severe muscle pain and weakness of the lower extremities” value ([6]; human, in vivo) was “three”. For the same compound, the cumulative toxicity ([6]; increasing numbers of courses) was “toxicity appeared to be cumulative”, the “reversibility of muscle pain and weakness” value ([6]; three patients) was “reversible with drug withdrawal” and the “creatinine phosphokinase and aldolase” value ([6]; three patients with muscle pain and weakness) was “normal”. For the same compound, the “Number with Toxicity” value ([6]; ≥4 courses MGBG, 56 patients) was 28 patients, the “Number with Toxicity (Approx %)” value ([6]; ≥4 courses MGBG, 56 patients) was 50% and the “IMP (Improvement noted)” value (Breast) was 2. For the same compound, the “No Response” value (Breast) was 10, the “biologic effect at 250 mg/m^2” value ([7]; 12 patients, 250 mg/m^2) was “no apparent biologic effect” and the “response at 250 mg/m^2 weekly” value [7, 9] was “no response”. The “CR (Complete response), total” value ([7]; weekly, 65 evaluable patients) was 2, the “CR + PR, total” value ([7]; weekly, 65 evaluable patients) was 11 and the “IMP (Improvement noted), total” value ([7]; weekly, 65 evaluable patients) was 9. The “No Response, total” value ([7]; weekly, 65 evaluable patients) was 45, the “PR (Partial response), total” value ([7]; weekly, 65 evaluable patients) was 9 and the “antineoplastic activity in solid tumors” value ([7]; weekly, colon, esophageal, renal cell, prostate, and breast carcinoma) was “effective”. For the same compound, the “CR + PR” value (Renal; 5 evaluable patients) was 1, the “IMP (Improvement noted)” value (Renal; 5 evaluable patients) was 2 and the “No Response” value (Renal; 5 evaluable patients) was 2. For the same compound, the “PR (Partial response)” value (Renal; 5 evaluable patients) was 1, the “Duration Months” value (Renal; duration of CR + PR) was 5 Months and the “CR (Complete response)” value ([8]; 3 evaluable patients) was 1. For the same compound, the “CR + PR” value ([8]; 3 evaluable patients) was 1, the “No Response” value ([8]; 3 evaluable patients) was 2 and the “Duration Months” value ([8]; duration of CR + PR) was 1 Months. For the same compound, the “IMP (Improvement noted)” value (Oat Cell) was 1, the “No Response” value (Hepatoma) was 1 and the “No Response” value (Head & Neck) was 2. For the same compound, the “concentration at which MGBG is a potent inhibitor of spermidine biosynthesis” value (spermidine biosynthesis) was no less than 0.5 µg/mL.
